According to patent publication US5800838A, “Composition that inhibits or destroys at least one unicellular living organism containing fluorine F- and Lithium li+” (priority 1987, dated 1998):
≈ marks a conversion by molar mass, not a printed value. Like-named read-outs stand apart in the source and are kept apart here.

Experiments:
Enterobacter = test: Concentrations of cefotaxime inhibiting 50% of the strains; type: cell-based
Description: (§1) The activity of CEFOTAXIME was tested, alone and then in the presence of lithium fluoride, with respect to pathogenic strains other than Pseudomonas aeruginosa.
(§2) The following table expresses the concentrations (mg/l) of cefotaxime inhibiting 50% of the strains.

Proteus morganii = test: as above; type: cell-based; settings: Morganella morganii; alone; F20; read-out: 50% inhibitory concentration
Description: as §1, §2

Klebsiella = test: as above; type: cell-based
Description: as §1, §2

Escherichia coli = test: as above; type: cell-based
Description: as §1, §2

Serratia = test: as above; type: cell-based
Description: as §1, §2

Pseudomonas aeruginosa [1] = test: MIC of antibiotics by microdilution in liquid medium on plates (Example 18); type: cell-based; settings: Pseudomonas aeruginosa, read-out: MIC (average MIC value)
Description: The unicellular living organism chosen for the trials is Pseudomonas aeruginosa (wild-type strain originating from hospital sources).
The same methodology as for Examples 11 and 12 was follows. Bacteriostatic analyses were performed with a number of antibiotics belonging to benzylpenicillins, and aminopenicillins, and first and second generation cephalosporins, namely:
The determination of the MIC was carried out by the microdilution method in liquid medium on plates. Aqueous solutions of each antibiotic are prepared in MUELLER HINION broth, to obtain dilutions in a geometric ratio of 2. The solvent is sterile double-distilled water.
The preparation of the bacterial inoculum is made with a culture of Pseudomonas aeruginosa, with agitation on a water bath at 37° C. for 4 to 6 hours, giving 10^6 bacteria/ml.
Three trials were performed per antibiotic and per bacterial inoculum. The trials were performed first with the antibiotics alone (trials a).sctn., and then with the addition of a dose of 1 mg/l of an aqueous solution of lithium fluoride (trials b).sctn. to the dilution of each one in every cup of every plate.

staphylococcus aeurus = type: cell-based; settings: Fli 4 ppm
Description: Strains Gram+ and Gram- (wild-type hospital) having a resistant phenotype vis a vis standard firstly and secondly used antibiotherapy were experimented on activated antibiotics.
250 experiments were conducted on the following strains: Streptococcus group B, C, D, F, G, Staphylococcus aureus, Staphylococcus epidermitis, Klebsiella pneumoniae, Klebsiella spirochete, Klebsiella oxytoca, Proteus mirabilis, Serratia marcescens, Escherichia coli, Citrobacter freundii, Enterobacter cloacae, Enterobacter calcoaceticus, Salmonella spirochete, Salmonella typhimurium, Pseudomonas aeruginosa, Haemophilus influenzae, Haemophilus sphrophilus, Acinetobacter calcoaeticus. […]

[2] = test system: β-Haemolytic streptococcus; test: Antibiotic activity on hospital strains normally resistant to amoxicillin; type: cell-based; settings: read-out: 100% inhibitory concentration
[3] = test system: Escherichia coli (TEM plasmid); test: microbe, parasite or virus in culture; type: cell-based
[4] = test system: Haemophilus influenzae producing β-lactamase; test: Antibiotic activity of amoxicillin on hospital strains producing β-lactamase (Example 22); settings: 4 ppm amoxicillin in the presence of 1 ppm clavulanic acid
Staphylococcus aureus [5] = test: Antibiotic activity on hospital strains normally resistant to amoxicillin; type: cell-based; settings: read-out: 100% inhibitory concentration
Haemophilus influenzae = test: as above; type: cell-based
Klebsiella pneumoniae [6] = test: as above; type: cell-based; settings: read-out: 100% inhibitory concentration
spermatozoa = test: SANDERS-CRAMER total spermicidal test according to IPPF standards; type: cell-based; settings: alone
salmonella spirochete = test: "Time killing curve", optical density at 600 nm; type: cell-based; settings: Fli 32 ppm
Description: (§3) The kinetics of the bacterial growth of serratia marcescens and salmonella spirochete has been studied with the "Time killing curve" methodology, for gentamicine (64 ppm) alone, Fli (32 ppm) and gentamicine (64 ppm) in presence of Fli (32 ppm). The bacterial growth is determined by spectrophotometric reading of the optical density for a wavelength of 600 nm.
(§4) The following table illustrates the optical density (1/100) obtained: […]

serratia marcescens [7] = test: "Time killing curve", optical density at 600 nm; type: cell-based; settings: Fli 32 ppm
Description: as §3, §4

Klebsiella pneumoniae [8] = test: "chess" test, dilution in liquid medium, Trial 3; type: cell-based
Source text: (§5) Substance A was gentamicine
The strain was Klebsiella pneumoniae (wild-type hospital strain)

proteus mirabilis [9] = test: "chess" test, dilution in liquid medium, Trial 2; type: cell-based
Source text: as §5
The strain was a very resistant proteus mirabilis (wild-type hospital)

Pseudomonas aeruginosa [10] = test: MIC of gentamicine, inclined agar with concentration gradient; type: cell-based; settings: alone; SENSIBLE strains
Description: (§6) The strains used were wild-type hospital strains having a resistant phenotype as regards gentamicine: pseudomonas aeruginosa, proteus mirabilis, serratia marcescens.
(§7) The phenotype of the strains was determined by diffusion in gradient on selective agar. Then, each group of strains having the same phenotype (resistant or sensible) was seeded on inclined agar having a gradient of concentration of the composition.
(§8) This methodology is explained by SZYBALSKI and BRYSON in "Selection de mutants resistant aux antibiotiques", L'antibiogramme, Vigot, p. 259-260.
(§9) The results are shown in the following table illustrating the MIC of gentamicine (aminoglycoside antibiotic).
(§10) x/y means a concentration read between x ppm and y ppm.

proteus mirabilis [11] = test: as above; type: cell-based; settings: alone; SENSIBLE strains
Description: as §6, §7, §8, §9, §10

serratia marcescens [12] = test: as above; type: cell-based; settings: alone; SENSIBLE strains
Description: as §6, §7, §8, §9, §10

[13] = test system: pseudomonas aeruginosa and Escherichia coli; type: cell-based
Source text: It is known that a strain develops a resistance against an antibiotic substance with which it is left in contact, by a phenotypical mutation procedure.
This phenomena has been studied on pseudomonas aeruginosa and Escherichia coli (wild-type hospital strains) which commonly develop resistance against aminosides. The antibiotic substance choosen was thus gentamicine which is an aminoside antibiotic.
And the growth of the resistance was studied with gentamicine alone, then with gentamicine in presence of Fli.
The trial was conducted on 12 days, and the MIC of gentamicine alone and of gentamicine in presence of Fli (4 ppm) was determined each day on transportplates in liquid medium with a serie of dilution in Mueller/Hinton agar.
The MBC (Minimal Bactericide Concentration) was also determined from the solution after determination of the MIC seeded on agar adapted to the strain. The MBC is read for a percentage of survivors less than 0,20%.

Pseudomonas aeruginosa [14] = test: "chess" test, dilution in liquid medium, Trial 4; type: cell-based
Source text: as §5
The strain was pseudomonas aeruginosa (wild-type hospital resistant strain)

MAC COY cells = test: Cytotoxic activity with respect to MAC COY cells; settings: LiF at 1 mg/l; benzalkonium chloride under the conditions of the trials
Staphylococcus aureus [15] = test system: Staphylococcus aureus
Description: Concentration series of two antibiotic substances A and B are prepared in the geometric ratio of 2 are combined and the following values are determined:
MIC B/A = minimal inhibiting concentration B in presence of A [formula]
The MIC of the bacteriostatic effect is read when the percentage of surviving strains is less or equal to 1%.
The combination of the substances A and B is synergistic as regards the bacteriostatic effect when FIC≤0,75. The combination is additive when FIC=1. The combination is insensible when 1<FIC≤2. The combination is antagonistic when FIC>2.
Substance A was tetracycline (concentration serie from 0,25 to 128 mg/l)
Substance B was Fli (concentration serie from 0,25 to 16 mg/l)
The strain was staphylococcus aureus (wild-type hospital resistant strain)

[16] = read-out: 100% inhibitory concentration, alone
[17] = B (Fli) in presence of A (gentamicine)
[18] = alone, wild-type hospital resistant strain

CO/N=C(\C(=O)N[C@@H]1C(=O)N2C(C(=O)O)=C(COC(C)=O)CS[C@H]12)c1csc(N)n1 [CEFOTAXIME, cefotaxime]
IC50 (Enterobacter; alone, P49, read-out: 50% inhibitory concentration): 27.2 µg/mL (≈ 59.7 µM)
IC50 (Enterobacter; alone, T45, read-out: 50% inhibitory concentration): 0.05 µg/mL (≈ 0.11 µM)
IC50 (Enterobacter; in the presence of LiF at 1 mg/l, P49, read-out: 50% inhibitory concentration): 23.2 µg/mL
IC50 (Enterobacter; in the presence of LiF at 1 mg/l, T45, read-out: 50% inhibitory concentration): 0.023 µg/mL
IC50 (Proteus morganii): 0.01 µg/mL (≈ 0.022 µM)
IC50 (Klebsiella; alone, 1103, read-out: 50% inhibitory concentration): 0.023 µg/mL (≈ 0.0505 µM)
IC50 (Klebsiella; alone, U28, read-out: 50% inhibitory concentration): 0.28 µg/mL (≈ 0.615 µM)
IC50 (Klebsiella; in the presence of LiF at 1 mg/l, 1103, read-out: 50% inhibitory concentration): 0.01 µg/mL
IC50 (Klebsiella; in the presence of LiF at 1 mg/l, U28, read-out: 50% inhibitory concentration): 0.16 µg/mL
IC50 (Escherichia coli; alone, K12 J53, read-out: 50% inhibitory concentration): 0.023 µg/mL (≈ 0.0505 µM)
IC50 (Escherichia coli; alone, K12 PIP 55, read-out: 50% inhibitory concentration): 0.023 µg/mL (≈ 0.0505 µM)
IC50 (Escherichia coli; alone, K12 PIP 111, read-out: 50% inhibitory concentration): 0.023 µg/mL (≈ 0.0505 µM)
IC50 (Escherichia coli; alone, SOL, read-out: 50% inhibitory concentration): 0.18 µg/mL (≈ 0.395 µM)
IC50 (Escherichia coli; in the presence of LiF at 1 mg/l, K12 J53, read-out: 50% inhibitory concentration): 0.01 µg/mL
IC50 (Escherichia coli; in the presence of LiF at 1 mg/l, K12 PIP 55, read-out: 50% inhibitory concentration): 0.023 µg/mL
IC50 (Escherichia coli; in the presence of LiF at 1 mg/l, K12 PIP 111, read-out: 50% inhibitory concentration): 0.023 µg/mL
IC50 (Serratia; alone, 1123, read-out: 50% inhibitory concentration): 0.076 µg/mL (≈ 0.167 µM)
IC50 (Serratia; alone, MO1117, read-out: 50% inhibitory concentration): 0.3 µg/mL (≈ 0.659 µM)
IC50 (Serratia; in the presence of LiF at 1 mg/l, 1123, read-out: 50% inhibitory concentration): 0.076 µg/mL
IC50 (Serratia; in the presence of LiF at 1 mg/l, MO1117, read-out: 50% inhibitory concentration): 0.3 µg/mL
MIC (Pseudomonas aeruginosa [1]; + LiF 1 mg/l, strain lic R βLac^+ OXA): 16 µg/mL
MIC (Pseudomonas aeruginosa [1]; + LiF 1 mg/l, strain lic R βLac^+ PSE): 16 µg/mL
MIC (Pseudomonas aeruginosa [1]; + LiF 1 mg/l, strain lic R βLac^+ TEM): 32 µg/mL
MIC (Pseudomonas aeruginosa [1]; + LiF 1 mg/l, strain lic R βLac^+ cephalosporinase): 256 µg/mL
MIC (Pseudomonas aeruginosa [1]; + LiF 1 mg/l, strain lic S βLac^- (first column)): 8 µg/mL
MIC (Pseudomonas aeruginosa [1]; + LiF 1 mg/l, strain lic S βLac^- (second column)): 16 µg/mL
MIC (Pseudomonas aeruginosa [1]; alone, strain lic R βLac^+ OXA): 32 µg/mL
MIC (Pseudomonas aeruginosa [1]; alone, strain lic R βLac^+ PSE): 32 µg/mL
MIC (Pseudomonas aeruginosa [1]; alone, strain lic R βLac^+ TEM): 32 µg/mL
MIC (Pseudomonas aeruginosa [1]; alone, strain lic R βLac^+ cephalosporinase): 256 µg/mL
MIC (Pseudomonas aeruginosa [1]; alone, strain lic S βLac^- (first column)): 16 µg/mL
MIC (Pseudomonas aeruginosa [1]; alone, strain lic S βLac^- (second column)): 32 µg/mL

CC1(C)S[C@@H]2[C@H](NC(=O)[C@H](N)c3ccc(O)cc3)C(=O)N2[C@H]1C(=O)O [amoxicillin]
phenotype in presence of Fli (staphylococcus aeurus): the resistant phenotype was not changed
MIC ([2]; alone): 16 µg/mL (≈ 43.8 µM)
MIC ([2]; in the presence of LiF 8 ppm): 4 µg/mL
MIC [3, 16]: > 128 µg/mL
MIC ([3]; read-out: 100% inhibitory concentration, in the presence of LiF 8 ppm): 32 µg/mL
time to inhibition of the strains to 100% [4]: 24 h
MIC (Staphylococcus aureus [5]; alone): 32 µg/mL (≈ 87.6 µM)
MIC (Staphylococcus aureus [5]; in the presence of LiF 8 ppm): 8 µg/mL
MIC (Haemophilus influenzae; in the presence of LiF 8 ppm, read-out: 100% inhibitory concentration): 32 µg/mL
MIC (Haemophilus influenzae; [16]): > 128 µg/mL
MIC (Klebsiella pneumoniae [6]; alone): 64 µg/mL (≈ 175 µM)
MIC (Klebsiella pneumoniae [6]; in the presence of LiF 8 ppm): 2 µg/mL

[F-].[Li+] [lithium fluoride]
MIC (spermatozoa): ~3 ppm
MIC, equivalent in % (spermatozoa): ~0.0003%
optical density (1/100) (salmonella spirochete; 3 h 00, gentamicine 64 ppm): 14 1/100
optical density (1/100) (salmonella spirochete; 24 h 00, gentamicine 64 ppm): 20 1/100
optical density (1/100) (serratia marcescens [7]; 3 h 00, gentamicine 64 ppm): 13 1/100
optical density (1/100) (serratia marcescens [7]; 6 h 00, gentamicine 64 ppm): 15 1/100
optical density (1/100) (serratia marcescens [7]; 24 h 00, gentamicine 64 ppm): 18 1/100
MIC B/A (Klebsiella pneumoniae [8]; [17]): 32 µg/mL
MIC alone (MIC A, MIC B) (Klebsiella pneumoniae [8]; alone, wild-type hospital strain): 128 µg/mL
MIC B/A (proteus mirabilis [9]; [17]): 16 µg/mL
MIC alone (MIC A, MIC B) (proteus mirabilis [9]; alone, very resistant wild-type hospital strain): 128 µg/mL
MIC (Pseudomonas aeruginosa [10]): > 32 ppm or mg/l
MIC (proteus mirabilis [11]): > 32 ppm or mg/l
MIC (serratia marcescens [12]): > 32 ppm or mg/l
effect on creation of resistance [13]: retards the creation of the resistance and reduces to the half the capability of each strain for developping such resistances
resistance developed by the strain ([13]; against Fli, 12 days): no resistance is developped
MIC B/A (Pseudomonas aeruginosa [14]; [17]): 16 µg/mL
MIC alone (MIC A, MIC B) (Pseudomonas aeruginosa [14]; [18]): 128 µg/mL
toxic activity (MAC COY cells): does not have toxic activity
MIC B/A (Staphylococcus aureus [15]; B (Fli) in presence of A (tetracycline)): 16 µg/mL
MIC alone (MIC A, MIC B) (Staphylococcus aureus [15]; [18]): 64 µg/mL
